These results are taken from patent US9255094B2, “Pyrido[4,3-B]indoles and methods of use” (Medivation Technologies, Inc., priority 2009, dated 2016).

Molecules are shown by their SMILES.

Assay [1] addresses T1, rat adrenergic α1A receptor (Rattus norvegicus, UniProt P43140).
T1 construct: from tissue; host or cells: Wistar Rat submaxillary glands
T1 sequence (P43140 1-466): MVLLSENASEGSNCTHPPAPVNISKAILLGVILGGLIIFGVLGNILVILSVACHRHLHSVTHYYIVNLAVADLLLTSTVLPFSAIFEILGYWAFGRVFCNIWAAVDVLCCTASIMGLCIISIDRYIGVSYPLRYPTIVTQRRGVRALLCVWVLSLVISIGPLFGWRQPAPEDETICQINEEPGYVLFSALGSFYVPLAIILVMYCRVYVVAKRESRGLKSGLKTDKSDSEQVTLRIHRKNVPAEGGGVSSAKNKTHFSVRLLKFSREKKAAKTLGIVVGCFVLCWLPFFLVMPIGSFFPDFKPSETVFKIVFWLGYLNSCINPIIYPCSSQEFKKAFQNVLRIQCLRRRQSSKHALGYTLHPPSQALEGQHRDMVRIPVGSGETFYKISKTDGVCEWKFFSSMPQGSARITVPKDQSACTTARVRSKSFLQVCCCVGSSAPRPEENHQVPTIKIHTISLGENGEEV
In words: Adrenergic α1A radioligand binding assay ([3H]Prozosin). The conditions noted are these: compound at 0.1 μM; 0.25 nM [3H]Prozosin; Wistar Rat submaxillary glands; read-out: Percent Inhibition of ligand binding, Adrenergic (0.1 μM) a1A. As to the method:
To evaluate in radioligand binding assays the activity of compounds of the invention, rat adrenergic α1A receptor obtained from Wistar Rat submaxillary glands (Michel, A. D. et al., Br. J. Pharmacol. 98:883, 1989) in a modified Tris-HCl buffer (50 mM Tris-HCl buffer, pH 7.4, 0.5 mM EDTA) is used. Compounds of the invention are incubated with 0.25 nM [^3H]Prozosin for 60 min at 25° C. Non-specific binding is estimated in the presence of 10 μM phentolamine. Receptor proteins are filtered and washed, the filters are then counted to determine [^3H]Prozosin specifically bound. Compounds of the invention are screened at 1 μM or lower, using 1% DMSO as vehicle. Compounds of the invention are tested in this biochemical assay and percent inhibition of specific binding is determined.

The target of assay [2] is T2, human recombinant serotonin (5-Hydroxytryptamine) 5-HT2A receptor (Homo sapiens, UniProt P28223).
T2 construct: expressed in transfected cells; host or cells: Chinese hamster ovary (CHO-K1) cells
In words: Serotonin 5-HT2A radioligand binding assay ([3H]Ketanserin). Conditions: 0.5 nM [3H]Ketanserin, CHO-K1 cells; for inhibition at 1 µM: compound at 1 μM, read-out: Percent Inhibition of ligand binding, Serotonin (1 μM) 5-HT2A; for inhibition at 0.1 µM: compound at 0.1 μM, read-out: Percent Inhibition of ligand binding, Serotonin (0.1 μM) 5-HT2A. As to the method: Compounds of the invention were incubated with 0.5 nM [^3H]Ketanserin for 60 min at 25° C. Non-specific binding was estimated in the presence of 1 μM Mianserin. Receptor proteins were filtered and washed, the filters were then counted to determine [^3H]Ketanserin specifically bound. Compounds were screened at 1 μM or lower, using 1% DMSO as vehicle. Biochemical assay results are presented as the percent inhibition of specific binding in Table 4.

Assay [3] deals with T3, human recombinant adrenergic α2A receptor (Homo sapiens, UniProt P08913).
T3 construct: expressed in transfected cells; host or cells: insect Sf9 cells
T3 sequence (P08913 1-465): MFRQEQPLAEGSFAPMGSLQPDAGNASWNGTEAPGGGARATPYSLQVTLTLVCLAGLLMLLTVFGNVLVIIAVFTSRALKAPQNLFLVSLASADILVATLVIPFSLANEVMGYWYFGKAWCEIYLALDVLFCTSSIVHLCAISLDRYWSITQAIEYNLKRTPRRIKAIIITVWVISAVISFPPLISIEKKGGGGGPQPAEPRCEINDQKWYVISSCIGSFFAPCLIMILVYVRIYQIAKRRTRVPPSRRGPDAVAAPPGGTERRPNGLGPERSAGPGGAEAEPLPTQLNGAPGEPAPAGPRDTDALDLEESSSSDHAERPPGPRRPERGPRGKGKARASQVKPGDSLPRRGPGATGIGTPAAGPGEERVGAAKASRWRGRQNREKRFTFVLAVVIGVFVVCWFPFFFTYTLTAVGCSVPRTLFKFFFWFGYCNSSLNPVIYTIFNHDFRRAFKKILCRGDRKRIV
In words: Adrenergic α2A radioligand binding assay ([3H]MK-912). Conditions: 1 nM [3H]MK-912, insect Sf9 cells; for inhibition at 0.1 µM: compound at 0.1 μM, read-out: Percent Inhibition of ligand binding, Adrenergic (0.1 μM) a2A; for inhibition at 1 µM: compound at 1 μM, read-out: Percent Inhibition of ligand binding, Adrenergic (1 μM) a2A. As to the method:
To evaluate in radioligand binding assays the activity of compounds of the invention, human recombinant adrenergic α2A receptor expressed in insect Sf9 cells (Uhlen S et al. J. Pharmacol. Exp. Ther. 271:1558, 1994) in a modified Tris-HCl buffer (50 mM Tris-HCl, pH 7.4, 12.5 mM MgCl2, 2 mM EDTA) was used. Compounds of invention were incubated with 1 nM [^3H]MK-912 for 60 min at 25° C. MK912 is (2S-trans)-1,3,4,5′,6,6′,7,12b-octahydro-1′,3′-dimethyl-spiro[2H-benzofuro[2,3-a]quinolizine-2,4′(1′H)-pyrimidin]-2′(3′H)-one hydrochloride Non-specific binding was estimated in the presence of 10 μM WB-4101 (2-(2,6-dimethoxyphenoxyethyl)aminomethyl-1,4-benzodioxane hydrochloride). Receptor proteins were filtered and washed, the filters were then counted to determine [^3H]MK-912 specifically bound.

In assay [4] the target is T4, human recombinant adrenergic α1D receptor (Homo sapiens, UniProt P25100).
T4 construct: expressed in transfected cells; host or cells: human embryonic kidney (HEK-293) cells
T4 sequence (P25100 1-572): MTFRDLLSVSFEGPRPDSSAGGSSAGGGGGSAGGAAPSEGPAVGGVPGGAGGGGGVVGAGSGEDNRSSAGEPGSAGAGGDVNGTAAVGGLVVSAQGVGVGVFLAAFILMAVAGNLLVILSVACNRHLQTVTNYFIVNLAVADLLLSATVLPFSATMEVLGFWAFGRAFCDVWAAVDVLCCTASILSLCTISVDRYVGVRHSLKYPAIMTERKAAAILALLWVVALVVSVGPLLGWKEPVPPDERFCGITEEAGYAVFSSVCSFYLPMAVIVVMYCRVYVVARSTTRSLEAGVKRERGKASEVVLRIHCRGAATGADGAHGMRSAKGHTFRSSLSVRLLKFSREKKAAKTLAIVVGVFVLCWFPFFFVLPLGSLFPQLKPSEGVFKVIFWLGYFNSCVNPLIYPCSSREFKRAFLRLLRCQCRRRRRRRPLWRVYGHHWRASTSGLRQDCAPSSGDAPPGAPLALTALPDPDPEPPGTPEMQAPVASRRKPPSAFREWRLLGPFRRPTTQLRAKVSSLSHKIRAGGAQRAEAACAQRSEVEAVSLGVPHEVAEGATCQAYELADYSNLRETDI
In words: Adrenergic α1D radioligand binding assay ([3H]Prozosin). Conditions: compound at 1 μM; 0.6 nM [3H]Prozosin; HEK-293 cells; read-out: Percent Inhibition of ligand binding, Adrenergic (1 μM) a1D. As to the method:
Compounds of invention were incubated with 0.6 nM [^3H]Prozosin for 60 min at 25° C. Non-specific binding was estimated in the presence of 10 μM phentolamine Receptor proteins were filtered and washed, the filters were then counted to determine [^3H]Prozosin specifically bound.

T2 sequence (P28223 whole entry): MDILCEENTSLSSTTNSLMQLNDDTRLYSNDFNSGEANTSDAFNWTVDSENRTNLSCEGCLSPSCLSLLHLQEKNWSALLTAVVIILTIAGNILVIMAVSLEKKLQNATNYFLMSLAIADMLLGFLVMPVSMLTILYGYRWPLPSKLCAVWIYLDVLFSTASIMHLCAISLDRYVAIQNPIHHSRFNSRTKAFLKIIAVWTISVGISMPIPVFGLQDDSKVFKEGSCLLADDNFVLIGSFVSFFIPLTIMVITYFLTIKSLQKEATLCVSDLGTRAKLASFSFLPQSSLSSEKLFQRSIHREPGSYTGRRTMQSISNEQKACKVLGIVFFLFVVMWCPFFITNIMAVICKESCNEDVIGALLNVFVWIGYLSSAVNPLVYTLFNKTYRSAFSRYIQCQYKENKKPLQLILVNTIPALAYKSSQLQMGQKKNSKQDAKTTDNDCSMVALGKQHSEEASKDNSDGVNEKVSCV

As usually defined, the inhibition is the relative decrease from the control value, in per cent. For `Cc1ccc2c(c1)c1c(n2CC(O)c2ccncc2)CCN(C)C1` (stereo not drawn) [Compound 1-8, 2-(2,8-dimethyl-3,4-dihydro-1H-pyrido[4,3-b]indol-5(2H)-yl)-1-(pyridin-4-yl)ethanol], the results for the inhibition at 0.1 µM in assay [1] and in assay [3] were 9% and 37%, respectively. Moreover, the inhibition at 1 µM in assay [2] stood at 86%.
Consider `CN1CCc2c(c3cc(Cl)ccc3n2CC(O)c2ccncc2)C1` (stereo not drawn) [Compound 1-11, 2-(8-chloro-2-methyl-3,4-dihydro-1H-pyrido[4,3-b]indol-5(2H)-yl)-1-(pyridin-4-yl)ethanol], for which the inhibition at 0.1 µM amounted to 12% in assay [1] and 41% in assay [3]. In assay [2], the inhibition at 1 µM was 82%.
For `Cc1ccc2c(c1)c1c(n2CC(C)(O)c2ccc(O)cc2)CCN(C)C1` (stereo not drawn) [Compound 1-15, 4-(1-(2,8-dimethyl-3,4-dihydro-1H-pyrido[4,3-b]indol-5(2H)-yl)-2-hydroxypropan-2-yl)phenol], in that order: 36%, 32% and 102%.
Turning to `Cc1ccc2c(c1)c1c(n2CCc2ccc(C)nc2)CCN(CCC#N)C1` [Compound 1-34, 3-(8-methyl-5-(2-(6-methylpyridin-3-yl)ethyl)-3,4-dihydro-1H-pyrido[4,3-b]indol-2(5H)-yl)propanenitrile], the inhibition at 1 µM stood at 0% in assay [2], 3% in assay [3] and 6% in assay [4].
For `Cc1ccc2c(c1)c1c(n2CC(=O)c2ccccc2)CCN(C)C1` [Compound 1-35, 2-(2,8-dimethyl-3,4-dihydro-1H-pyrido[4,3-b]indol-5(2H)-yl)-1-phenylethanone], in that order: 90%, 19% and 18%.
For `CN1CCc2c(c3cc(Cl)ccc3n2CC(=O)c2ccccc2)C1` [Compound 1-36, 2-(8-chloro-2-methyl-3,4-dihydro-1H-pyrido[4,3-b]indol-5(2H)-yl)-1-phenylethanone], in that order: 98%, 43% and 52%.
On to `CN1CCc2c(c3cc(Cl)ccc3n2CC(=O)c2ccc(F)cc2)C1` [Compound 1-37, 2-(8-chloro-2-methyl-3,4-dihydro-1H-pyrido[4,3-b]indol-5(2H)-yl)-1-(4-fluorophenyl)ethanone], for which the figures for the inhibition at 1 µM in assay [2], in assay [3] and in assay [4] were 98%, 87% and 56%, respectively.
For `CN1CCc2c(c3cc(Cl)ccc3n2CC(=O)c2ccc(Cl)cc2)C1` [Compound 1-38, 2-(8-chloro-2-methyl-3,4-dihydro-1H-pyrido[4,3-b]indol-5(2H)-yl)-1-(4-chlorophenyl)ethanone], in that order: 100%, 90% and 56%.
For `Cc1ccc2c(c1)c1c(n2CC(=O)c2ccc(F)cc2)CCN(C)C1` [Compound 1-39, 2-(2,8-dimethyl-3,4-dihydro-1H-pyrido[4,3-b]indol-5(2H)-yl)-1-(4-fluorophenyl)ethanone], in that order: 98%, 88% and 57%.
For `Cc1ccc2c(c1)c1c(n2CCc2ccc(CCCN)nc2)CCN(C)C1` [Compound 1-40, 3-(5-(2-(2,8-dimethyl-3,4-dihydro-1H-pyrido[4,3-b]indol-5(2H)-yl)ethyl)pyridin-2-yl)propan-1-amine], in that order: 78%, 31% and 53%.
On to `Cc1ccc2c(c1)c1c(n2CCc2ccc(C(F)(F)F)nc2)CCNC1` [Compound 1-41, 8-methyl-5-(2-(6-(trifluoromethyl)pyridin-3-yl)ethyl)-2,3,4,5-tetrahydro-1H-pyrido[4,3-b]indole], for which the inhibition at 1 µM in assay [2] is 66%; in assay [3], 58%; in assay [4], 74%.
For `Cc1ccc2c(c1)c1c(n2CCc2ccc(C)nc2)CCN(CCCO)C1` [Compound 1-42, 3-(8-methyl-5-(2-(6-methylpyridin-3-yl)ethyl)-3,4-dihydro-1H-pyrido[4,3-b]indole-2(5H)-yl)propan-1-ol], in that order: 87%, 35% and 55%.
`Cc1ccc2c(c1)c1c(n2CC(C)c2ccncc2)CCN(C)C1` (stereo not drawn) [Compound 1-46, 2,8-dimethyl-5-(2-(pyridin-4-yl)propyl)-2,3,4,5-tetrahydro-1H-pyrido[4,3-b]indole]: the inhibition at 0.1 µM in assay [1] was 12%; in assay [2] it was 71%.
For `Cc1ccc2c(c1)c1c(n2CC(C)(C)c2ccncc2)CCN(C)C1` [Compound 1-49, 2,8-dimethyl-5-(2-methyl-2-(pyridin-4-yl)propyl)-2,3,4,5-tetrahydro-1H-pyrido[4,3-b]indole], in that order: 13% and 78%.
Turning to `CCCC[C@@](O)(Cn1c2c(c3cc(Cl)ccc31)CN(C)CC2)c1ccc(F)cc1` [Compound 1-67, (S)-1-(8-chloro-2-methyl-3,4-dihydro-1H-pyrido[4,3-b]indol-5(2H)-yl)-2-(4-fluorophenyl)hexan-2-ol], the inhibition at 0.1 µM amounted to 2% in assay [1] and 39% in assay [2].
